Laboratory results as given in patent EP0080305A1, “Antiviral 2'-deoxyuridines, their preparation and use” (BEECHAM GROUP PLC, priority 1981, dated 1983).
Counter-ions that a name gives are not always drawn. Like-named read-outs stand apart in the source and are kept apart here.

Experiments:
[1] = test system: Herpes simplex type 1 virus (HFEM strain); assay: Plaque reduction test in Vero cells infected with Herpes simplex type 1 virus; assay type: cell-based
Experimental: (§1) Vero (African Green Monkey Kidney) cells were grown to confluence in 6 well multidishes, each well being 3.5 cm in diameter. The cells were incubated with Herpes simplex type 1 virus (HFEM strain) and overlaid with 0.5 mL of 0.9% agarose (w/v) in maintenance medium containing the test compound at a range of concentrations from 3 µg/mL in half-log dilution steps. The virus infected cultures were then incubated at 37 °C for 6 days before fixing in 4% formaldehyde solution and staining with carbolfuchsin. The dishes were then examined to find what concentration of test compound causing a 50% reduction in the number of virus plaques formed (PDD50 value) and the minimum concentration of test compound which killed the cell monolayer, leaving a clear zone devoid of cells and virus plaques (MTD).

[2] = Minimum concentration killing the Vero cell monolayer, read in the plaque reduction test; assay type: cell-based, African Green Monkey; conditions: african green monkey; minimum concentration which killed the cell monolayer; virus-infected Vero cells, 6 days at 37°C; read-out: MTD
Experimental: as §1

[3] = Human alphaherpesvirus 1, 144 h, concentration causing a 50% reduction in the number of virus plaques, 6 days at 37°C, read-out: PDD50 (the source's name)
[4] = Human alphaherpesvirus 1, 144 h, same PDD50 values given in µM, 6 days at 37°C, read-out: PDD50 (the source's name)
[5] = Human alphaherpesvirus 1, Vero, 144 h, read-out: PDD50, concentration causing a 50% reduction in the number of virus plaques, 6 days at 37°C
[6] = Human alphaherpesvirus 1, Vero, 144 h, read-out: PDD50, same PDD50 values given in µM, 6 days at 37°C

## C[C@H](NC(=O)OC(C)(C)C)C(=O)OC[C@H]1O[C@@H](n2cc(/C=C/Br)c(=O)[nH]c2=O)C[C@@H]1OC(=O)[C@H](C)NC(=O)OC(C)(C)C [Example 24, E-5-(2-Bromovinyl)-3',5'-di-(t-butoxy-carbonyl-L-alanyl)-2'-deoxyuridine]
[1]; [3]
  IC50: 0.62 µg/mL
[1]; [4]
  IC50: 0.92 µM
[2]
  MCC at 144 h: > 100 µg/mL

## CC(C)(C)OC(=O)N[C@@H](Cc1ccccc1)C(=O)OC[C@H]1O[C@@H](n2cc(/C=C/Br)c(=O)[nH]c2=O)C[C@@H]1OC(=O)[C@H](Cc1ccccc1)NC(=O)OC(C)(C)C [Example 1, E-5-(2-Bromovinyl)-3',5'-di-O-(tertbutoxycarbonylphenylalanyl)-2'-deoxyuridine]
[1]; [3]
  IC50: 1.1 µg/mL
[1]; [4]
  IC50: 1.33 µM
[2]
  MCC at 144 h: > 100 µg/mL

## NC(Cc1ccccc1)C(=O)O[C@H]1C[C@H](n2cc(/C=C/Br)c(=O)[nH]c2=O)O[C@@H]1CO (stereo partly drawn) [Example 8, E-5-(2-Bromovinyl)-3'-O-phenylalanyl-2'-deoxyuridine trifluoroacetate]
[1]; [5]
  IC50: 0.45 µg/mL
[1]; [6]
  IC50: 0.76 µM
[2]
  MCC at 144 h: > 100 µg/mL

## CC(C)(C)OC(=O)N[C@@H](Cc1ccccc1)C(=O)O[C@H]1C[C@H](n2cc(/C=C/Br)c(=O)[nH]c2=O)O[C@@H]1CO [Example 2, E-5-(2-bromovinyl)-3'-O-(tertbutoxycarbonylphenylalanyl)-2'-deoxyuridine]
[1]; [3]
  IC50: 0.16 µg/mL
[1]; [4]
  IC50: 0.28 µM
[2]
  MCC at 144 h: > 100 µg/mL

## O=C(OC[C@H]1O[C@@H](n2cc(/C=C/Br)c(=O)[nH]c2=O)C[C@@H]1O)[C@@H]1CCCN1 [Example 36, E-5-(2-Bromovinyl)-5'-L-prolyl-2'-deoxyuridine trifluoroacetate]
[1]; [5]
  IC50: 0.55 µg/mL
[1]; [6]
  IC50: 1.01 µM
[2]
  MCC at 144 h: > 100 µg/mL

## CC(C)(C)OC(=O)NCC(=O)OC[C@H]1O[C@@H](n2cc(/C=C/Br)c(=O)[nH]c2=O)C[C@@H]1OC(=O)CNC(=O)OC(C)(C)C [Example 4, E-5-(2-Bromovinyl)-3',5'-di-O-(tert.butoxycarbonylglycyl)-2'-deoxyurdine]
[1]; [3]
  IC50: 1.95 µg/mL
[1]; [4]
  IC50: 3.01 µM
[2]
  MCC at 144 h: > 100 µg/mL

## CSCC[C@H](N)C(=O)OC[C@H]1O[C@@H](n2cc(/C=C/Br)c(=O)[nH]c2=O)C[C@@H]1OC(=O)[C@@H](N)CCSC [Example 32, E-5-(2-Bromovinyl)-3',5'-di-L-methionyl-2'-deoxyuridine bis trifluoroacetate]
[1]; [5]
  IC50: 0.26 µg/mL
[1]; [6]
  IC50: 0.32 µM
[2]
  MCC at 144 h: > 100 µg/mL

## CC(C)(C)OC(=O)N[C@@H](Cc1ccccc1)C(=O)OC[C@H]1O[C@@H](n2cc(/C=C/Br)c(=O)[nH]c2=O)C[C@@H]1O [Example 3, E-5-(2-Bromovinyl)-5'-O-(tertbutoxycarbonylphenylalanyl)-2'-deoxyuridine]
[1]; [3]
  IC50: 0.25 µg/mL
[1]; [4]
  IC50: 0.43 µM
[2]
  MCC at 144 h: > 100 µg/mL

## N[C@H](Cc1ccccc1)C(=O)OC[C@H]1O[C@@H](n2cc(/C=C/Br)c(=O)[nH]c2=O)C[C@@H]1OC(=O)[C@H](N)Cc1ccccc1 [Example 31, E-5-(2-Bromovinyl)-3',5'-di-D-phenylalanyl--2'-deoxyuridine bis trifluoroacetate]
[1]; [5]
  IC50: 0.55 µg/mL
[1]; [6]
  IC50: 0.64 µM
[2]
  MCC at 144 h: > 100 µg/mL

## CC[C@H](C)[C@H](N)C(=O)OC[C@H]1O[C@@H](n2cc(/C=C/Br)c(=O)[nH]c2=O)C[C@@H]1OC(=O)[C@@H](N)[C@@H](C)CC [Example 34, E-5-(2-Bromovinyl)-3',5'-di-L-isoleucyl-2'-deoxyuridine bis trifluoroacetate]
[1]; [5]
  IC50: 0.4 µg/mL
[1]; [6]
  IC50: 0.51 µM
[2]
  MCC at 144 h: > 100 µg/mL

## NC(=O)CC[C@H](N)C(=O)OC[C@H]1O[C@@H](n2cc(/C=C/Br)c(=O)[nH]c2=O)C[C@@H]1OC(=O)[C@@H](N)CCC(N)=O [Example 39, bis trifluoroacetate]
[1]; [5]
  IC50: 0.42 µg/mL
[1]; [6]
  IC50: 0.51 µM
[2]
  MCC at 144 h: > 100 µg/mL

## CC(C)C[C@@H](N)C(=O)OC[C@H]1O[C@@H](n2cc(/C=C/Br)c(=O)[nH]c2=O)C[C@@H]1OC(=O)[C@H](N)CC(C)C [Example 30, E-5-(2-Bromovinyl)-3',5'-di-D-leucyl-2'-deoxyuridine bis trifluoroacetate]
[1]; [5]
  IC50: 0.16 µg/mL
[1]; [6]
  IC50: 0.2 µM
[2]
  MCC at 144 h: > 100 µg/mL

## O=C(O[C@H]1C[C@H](n2cc(/C=C/Br)c(=O)[nH]c2=O)O[C@@H]1CO)[C@@H]1CCCN1 [Example 37, E-5-(2-Bromovinyl)-3'-L-prolyl-2'-deoxyuridine trifluoroacetate]
[1]; [5]
  IC50: 0.68 µg/mL
[1]; [6]
  IC50: 1.25 µM
[2]
  MCC at 144 h: > 100 µg/mL

## CC(C)(C)OC(=O)NCC(=O)OC[C@H]1O[C@@H](n2cc(/C=C/Br)c(=O)[nH]c2=O)C[C@@H]1O [Example 6, E-5-(2-Bromovinyl)-5'-O-(tert.-butoxycarbonylglycyl)-2'-deoxyuridine]
[1]; [3]
  IC50: 0.54 µg/mL
[1]; [4]
  IC50: 1.1 µM
[2]
  MCC at 144 h: > 100 µg/mL

## NC(Cc1ccccc1)C(=O)OC[C@H]1O[C@@H](n2cc(/C=C/Br)c(=O)[nH]c2=O)C[C@@H]1OC(=O)C(N)Cc1ccccc1 (stereo partly drawn) [Example 10]
[1]; [5]
  IC50: 0.19 µg/mL
[1]; [6]
  IC50: 0.24 µM
[2]
  MCC at 144 h: > 100 µg/mL

## CC(C)[C@H](N)C(=O)OC[C@H]1O[C@@H](n2cc(/C=C/Br)c(=O)[nH]c2=O)C[C@@H]1OC(=O)[C@@H](N)C(C)C [Example 33, E-5-(2-Bromovinyl)-3',5'-di-L-valyl-2'-deoxyuridine bis trifluoroacetate]
[1]; [5]
  IC50: 0.24 µg/mL
[1]; [6]
  IC50: 0.32 µM
[2]
  MCC at 144 h: > 100 µg/mL

## NC(Cc1ccc(F)cc1)C(=O)OC[C@H]1O[C@@H](n2cc(/C=C/Br)c(=O)[nH]c2=O)C[C@@H]1OC(=O)C(N)Cc1ccc(F)cc1 (mixture of isomers) [Example 15, E-5-(2-Bromovinyl)-3',5'-di-(p-fluoro-DL-phenylalanyl)-2'-deoxyuridine bis trifluoroacetate]
[1]; [3]
  IC50: 0.8 µg/mL
[1]; [4]
  IC50: 0.9 µM
[2]
  MCC at 144 h: > 100 µg/mL

## CC(C)(C)OC(=O)N1CCC[C@H]1C(=O)O[C@H]1C[C@H](n2cc(/C=C/Br)c(=O)[nH]c2=O)O[C@@H]1CO [Example 29, E-5-(2-Bromovinyl)-3'-(t-butoxycarbonyl-L-prolyl)-2'-decxyuridine]
[1]; [3]
  IC50: 0.64 µg/mL
[1]; [4]
  IC50: 1.21 µM
[2]
  MCC at 144 h: 100 µg/mL

## O=C(OC[C@H]1O[C@@H](n2cc(/C=C/Br)c(=O)[nH]c2=O)C[C@@H]1OC(=O)[C@@H]1CCCN1)[C@@H]1CCCN1 [Example 35, E-5-(2-Bromovinyl)-3',5'-di-L-prolyl-2'-deoxyuridine bis trifluoroacetate]
[1]; [5]
  IC50: 0.22 µg/mL
[1]; [6]
  IC50: 0.29 µM
[2]
  MCC at 144 h: > 100 µg/mL

## CC(C)[C@H](NC(=O)OC(C)(C)C)C(=O)OC[C@H]1O[C@@H](n2cc(/C=C/Br)c(=O)[nH]c2=O)C[C@@H]1OC(=O)[C@@H](NC(=O)OC(C)(C)C)C(C)C [Example 22, E-5-(2-Bromovinyl)-3',5'-di-(t-butoxy-carbonyl-L-valyl)-2'-deoxyuridine]
[1]; [3]
  IC50: > 100 µg/mL
[2]
  MCC at 144 h: > 100 µg/mL

## CC(C)C[C@H](N)C(=O)OC[C@H]1O[C@@H](n2cc(/C=C/Br)c(=O)[nH]c2=O)C[C@@H]1OC(=O)[C@@H](N)CC(C)C [Example 16, E-5-(2-Bromovinyl)-3',5'-di-L-leucyl-2'-deoxyuridine trifluoroacetate]
[1]; concentration causing a 50% reduction in the number of virus plaques, 6 days at 37°C, trifluoroacetate
  PDD50: 0.02 µg/mL
[1]; read-out: PDD50, same PDD50 values given in µM, 6 days at 37°C, trifluoroacetate
  IC50: 0.025 µM
[2]
  MCC at 144 h: > 100 µg/mL

## CC[C@H](C)[C@H](NC(=O)OC(C)(C)C)C(=O)OC[C@H]1O[C@@H](n2cc(/C=C/Br)c(=O)[nH]c2=O)C[C@@H]1OC(=O)[C@@H](NC(=O)OC(C)(C)C)[C@@H](C)CC [Example 23, E-5-(2-Bromovinyl)-3',5'-di-(t-butoxy-carbonyl-L-isoleucyl)-2'-deoxyuridine]
[1]; [3]
  IC50: > 100 µg/mL
[2]
  MCC at 144 h: > 100 µg/mL

## CC(C)(C)OC(=O)N1CCC[C@H]1C(=O)OC[C@H]1O[C@@H](n2cc(/C=C/Br)c(=O)[nH]c2=O)C[C@@H]1O [Example 28]
[1]; [3]
  IC50: 2.12 µg/mL
[1]; [4]
  IC50: 4 µM
[2]
  MCC at 144 h: 100 µg/mL

## CSCC[C@H](NC(=O)OC(C)(C)C)C(=O)OC[C@H]1O[C@@H](n2cc(/C=C/Br)c(=O)[nH]c2=O)C[C@@H]1OC(=O)[C@H](CCSC)NC(=O)OC(C)(C)C [Example 21, E-5-(2-Bromovinyl)-3',5'-di-(t-butoxy-carbonyl-L-methionyl)-2'-deoxyuridine]
[1]; [3]
  IC50: 1.71 µg/mL
[1]; [4]
  IC50: 2.15 µM
[2]
  MCC at 144 h: > 100 µg/mL

## CC(C)(C)OC(=O)NCCCC[C@H](NC(=O)OC(C)(C)C)C(=O)OC[C@H]1O[C@@H](n2cc(/C=C/Br)c(=O)[nH]c2=O)C[C@@H]1OC(=O)[C@H](CCCCNC(=O)OC(C)(C)C)NC(=O)OC(C)(C)C [Example 26, E-5-(2-Bromovinyl)-3',5'-bis-(Nβ,Nε-di-t-butoxycarbonyl-L-lysyl)-2'-deoxyuridine]
[1]; [3]
  IC50: 90 µg/mL
[1]; [4]
  IC50: 91 µM
[2]
  MCC at 144 h: > 100 µg/mL

## CC(C)(C)OC(=O)NCC(=O)O[C@H]1C[C@H](n2cc(/C=C/Br)c(=O)[nH]c2=O)O[C@@H]1CO [Example 5, E-5-(2-Bromovinyl)-3'-O-(tert.butoxycarbonylglycyl)-2'-deoxyuridine]
[1]; [3]
  IC50: 0.48 µg/mL
[1]; [4]
  IC50: 0.98 µM
[2]
  MCC at 144 h: > 100 µg/mL

## CC(C)(C)OC(=O)N[C@H](Cc1ccccc1)C(=O)OC[C@H]1O[C@@H](n2cc(/C=C/Br)c(=O)[nH]c2=O)C[C@@H]1OC(=O)[C@@H](Cc1ccccc1)NC(=O)OC(C)(C)C [Example 20, E-5-(2-Bromovinyl)-3',5'-di-(t-butoxy-carbonyl-D-phenylalanyl)-2'-deoxyuridine]
[1]; [3]
  IC50: > 100 µg/mL
[2]
  MCC at 144 h: > 100 µg/mL
